Assay results reported in publication PMC7170901, “Design and efficient synthesis of pyrazoline and isoxazole bridged indole C-glycoside hybrids as potential anticancer agents” (Scientific Reports, 2020).

Tests used:
Format in all cases: cell-based
[1] = MTT cell viability assay in normal MCF-10A cells; conditions: human, MCF-10A normal mammary epithelial cells, read-out: Cell Viability (%) ± SD
Source text: (§1) MDA-MB-231 represents a specific subtype, known as the triple negative breast cancer (TNBC). […] We also included normal mammary epithelial MCF-10A cells in our experiments to confirm if the growth-inhibitory activities of the selected compounds are truly cancer cell-specific. […] Furthermore, none of these compounds did have any growth inhibitory activity against normal breast epithelial cell (MCF-10A). The IC50 values for these compounds against MDA-MB-231 cells (Fig. 2) are also included in Table 4 for comparison. Cell viability assay was performed as per standard protocols. After 72 h of cell incubation in the presence or absence of each compound, cell viability was evaluated by using MTT ((3-(4,5-dimethylthiazol-2-yl)-2,5-diphenyltetrazolium bromide)) (Himedia Pvt. Ltd, India). In brief, this is a homogeneous, colorimetric method for determining the number of viable cells in proliferation, cytotoxicity or chemosensitivity assays. MTT is bio reduced by cells into a formazan product that is […]. After 72 h of compound treatment, the medium was removed and 100 μL of MTT (0.5 mg ml^−1 in media) was added to the cells and kept in the dark for 3 h at 37 °C in the CO2 incubator and the formazan formed was dissolved in 100 μL DMSO (Dimethyl Sulfoxide). The absorbance of the formazan product at 595 nm was measured directly from 96-well assay plates without additional processing using a multimode plate reader (Bio-Rad) (iMark, India), as absorbance is directly proportional to the number of viable cells in culture. The percentage of viable cells in each group is determined with respect to the untreated control cells.

[2] = system: MCF-7 breast cancer cells; assay: MTT cell viability assay in MCF-7 cells; conditions: Homo sapiens, MCF7, read-out: Cell Viability (%) ± SD
[3] = system: MDA-MB-453 cells; assay: MTT cell viability assay in MDA-MB-453 cells; conditions: Homo sapiens, read-out: Cell Viability (%) ± SD
Source text: as §1

[4] = system: MDA-MB-231 (human breast cancer) cell line; assay: MTT cell viability assay in MDA-MB-231 cells; conditions: Homo sapiens, read-out: Cell Viability (%) ± SD
Protocol: IC50 values were determined by plotting values of percent cell viability against concentration of each of these compounds. […] The experiments were performed in triplicates, n = 3 and ± SE value was calculated for each data point.
The human breast cancer cell line MDA-MB-231 were cultured in Dulbecco’s Modified Eagle’s Medium (DMEM) (Gibco, St. Louis, USA) supplemented with 10% heat inactivated FBS (Fetal Bovine Serum, Gibco, USA) and 1% penicillin-streptomycin (Gibco Canada) in humidified CO2 incubator at 37 °C. The cells were maintained as a monolayer in 100 mm culture plate. The cells used for each experiment were of less than 8 passage number. Sub culturing of cells was performed every third day, followed by trypsin EDTA treatment.
Cell viability assay was performed as per standard protocols. […] Ltd, India). In brief, this is a homogeneous, colorimetric method for determining the number of viable cells in proliferation, cytotoxicity or chemosensitivity assays. MTT is bio reduced by cells into a formazan product that is soluble in the tissue culture medium. […] The absorbance of the formazan product at 595 nm was measured directly from 96-well assay plates without additional processing using a multimode plate reader (Bio-Rad) (iMark, India), as absorbance is directly proportional to the number of viable cells in culture. The percentage of viable cells in each group is determined with respect to the untreated control cells.

## COCCn1c2c([n+](Cc3cnccn3)c1C)C(=O)c1ccccc1C2=O [YM155, reference compound]
[1]; positive control at 20 nM
  viability at 72 h, 0.02 µM: 48.2 ± 1.6%
[2]; MCF-7, positive control at 20 nM
  viability at 0.02 µM: 37.2 ± 1.7%
[3]; MDA-MB-453, positive control at 20 nM
  viability at 0.02 µM: 33.2 ± 1.5%
[4]; MDA-MB-231, MDA-MB-231, positive control at 20 nM
  viability at 0.02 µM: 27.4 ± 4.93%

## O=C(/C=C/c1c[nH]c2ccc([N+](=O)[O-])cc12)C[C@@H]1O[C@H](CO)[C@H](O)[C@H](O)[C@H]1O [Compound 14, (E)-4-(5-nitro-1H-indol-3-yl)-1-((2S,3R,4R,5R,6R)-3,4,5-trihydroxy-6-(hydroxymethyl)tetrahydro-2H-pyran-2-yl)but-3-en-2-one]
[1]; 25 µM
  viability at 72 h, 25 µM: 86.8 ± 2.8%
[1]; 50 µM
  viability at 72 h, 50 µM: 84.6 ± 0.7%
[1]; 100 µM
  viability at 72 h, 100 µM: 80 ± 1.5%
[2]; MCF-7, 1 µM
  viability at 1 µM: 100 ± 4.5%
[2]; MCF-7, 10 µM
  viability at 10 µM: 69.8 ± 1.8%
[2]; MCF-7, 25 µM
  viability at 25 µM: 66.8 ± 3%
[3]; MDA-MB-453, 1 µM
  viability at 1 µM: 80.8 ± 3.2%
[3]; MDA-MB-453, 10 µM
  viability at 10 µM: 82.2 ± 11.5%
[3]; MDA-MB-453, 25 µM
  viability at 25 µM: 65.3 ± 5.8%
[4]; MDA-MB-231, 72 h, MDA-MB-231, 10 µM, 72 h, MTT
  viability at 10 µM: 73.6 ± 11.8%
[4]; MDA-MB-231, 72 h, MDA-MB-231, 25 µM, 72 h, MTT
  viability at 25 µM: 59 ± 12.5%
[4]; MDA-MB-231, 72 h, MDA-MB-231, 50 µM, 72 h, MTT
  viability at 50 µM: 60.6 ± 5.61%
